# Species: Rattus norvegicus
# Assay: DrugMatrix - Regimen: Daily Repeat
# Type: toxicity, organism-based, Sprague-Dawley
# Set-up: regimen Daily Repeat, gender Male, age 6-8 weeks
# Details: in vivo, po, 20 mg/kg, tissue Plasma, route oral GAVAGE, dose level Low, vehicle 100 % WATER
compound,measurement,setting,value
COc1ccc(CCN(C)CCCC(C#N)(c2ccc(OC)c(OC)c2)C(C)C)cc1OC (configuration not stated),POTASSIUM,"72 h, time 3 day",6.68 MEQ/L
same,POTASSIUM,"120 h, time 5 day",6.29 MEQ/L

# — ChEMBL document CHEMBL3885881, “DrugMatrix”
